Key:
[1] = tested on: SW480 (colon adenocarcinoma); assay: Antiproliferative activity, sulforhodamine B (SRB) assay; assay type: cell-based, human; details: after treatment with 70 μM, 72 h
Description: (§1) The antiproliferative activity of selected Cu(II) ATCUN complexes was investigated towards different tumor cell lines (HCT116, NCI-H460, SiHa and SW480 cells) and expressed as the IC50 values.
(§2) Table S13. Accumulation of Cu in HCT116 cells after 24 h incubation with Cu-GGH, 1, 3, 4 and CuCl2 (70 µM) as determined by ICP-MS (n = 3), and cytotoxic activity in human cancer cell lines HCT116, NCI-H460, SiHa and SW480 expressed as the IC50 ± SD (in µM) as well as by the residual viable cells after treatment with 70 μM of the respective compound (%) as determined by the SRB assay (exposure time 72 h). accumulated Cu IC50 values […]
(§3) a – indicates no antiproliferative activity observed after treatment with the respective compound at 70 μM for 72 h.
(§4) S-12.1 Determination of IC50 values against HCT116, NCI-H460, SiHa and SW480 […]
(§5) HCT116, SW480 and NCI-H460 cells were supplied by ATCC, while SiHa cells were supplied by Dr. David Cowan, of the Ontario Cancer Institute, Canada. The cells were grown in α-MEM (Life Technologies) supplemented with 5% fetal calf serum (Moregate Biotech) at 37 °C in a humidified incubator with 5% CO2. […]
(§6) in 96-well plates and left to settle for 24 h. Compounds were added as water solutions to the plates in a series of 3-fold dilutions for 72 h before the assay was terminated by addition of 10% trichloroacetic acid (Merck Millipore) at 4 °C for 1 h. Cells were stained […]
(§7) with 0.4% sulforhodamine B (Sigma-Aldrich) in 1% acetic acid for 30 min in the dark at room temperature and then washed with 1% acetic acid to remove unbound dye. The stain was dissolved in unbuffered Tris base (10 mM, Serva) for 30 min on a plate shaker in the dark and quantified on a BioTek EL808 microplate reader at an absorbance of 490 nm with a reference wavelength of 450 nm to determine the percentage of cell-growth inhibition by determining the absorbance of each sample relative to a negative (no inhibitor) and a no-growth control (day 0). IC50 values were calculated with SigmaPlot 12.5 (Systat Software Inc.) using a three-parameter logistic sigmoidal dose−response curve between the calculated growth inhibition and the compound concentration. The presented IC50 values are the mean of at least three independent experiments, where 10 concentrations were tested in duplicate for each compound.
(§8) Ventures), by diluting with a matrix-matched solution with regard to HNO3 and Tm concentration, producing calibration standards with concentrations of 0.5, 1, 3, 5, 7, 10, […]
(§9) The measured Cu concentrations in the cell accumulation samples were in the range of 27–82 μg/L. The reported values are the means of at least three independent accumulation experiments conducted in triplicates with blank wells for each substance to account for unspecific binding of the Cu(II) complexes to the plastic of the well plates.
(§10) Accumulation values have been corrected by subtracting the average amount Cu determined in the cell-free wells.
(§11) Calibration curves for Cu were prepared with concentrations ranging from 0.5–100 µg/L. The limit of detection (LOD) was defined as 3 times the random error in the y-direction (Sy/x) of the calibration curve divided by the slope of the calibration curve. The limit of quantification (LOQ) was defined as 10 times the random error in the y-direction (Sy/x) of the calibration curve divided by the slope of the calibration curve.42 The LOD was determined for Cu as 1.8 μg/L and the LOQ was 5.95 μg/L.

[2] = tested on: SiHa (cervical carcinoma); assay: as above; assay type: cell-based, human; details: after treatment with 70 μM, 72 h
Description: as §1, §2, §3, §4, §5, §6, §7, §8, §9, §10, §11

[3] = tested on: NCI-H460 (non-small cell lung carcinoma); assay: as above; assay type: cell-based, human; details: after treatment with 70 μM, 72 h
Description: as §1, §2, §3, §4, §5, §6, §7, §8, §9, §10, §11

[4] = tested on: HCT116 (colorectal carcinoma); assay: as above; assay type: cell-based, human; details: after treatment with 70 μM, 72 h
Description: as §1, §2, §3, §4, §5, §6, §7, §8, §9, §10, §11

plasmid DNA pBR322 = details: 50 μM complex (Cu(II):peptide 1:1.25), pBR322 0.2 μg, MOPS 50 mM pH 7.4, ascH− 1 mM, 1 h, 37 °C; at least three experiments
Description: The influence of Gly2 and β‐Ala2 in the ATCUN motif of complexes 1–7 on the oxidative plasmid DNA cleavage activity was tested by means of gel electrophoresis. […] In Figure 3 the nuclease activity of in situ prepared 1–7, Cu−GGH and CuCl2 in the presence of ascH^− as reducing agent is shown (pH 7.4, 37 °C).
Figure 3 (Top) Nuclease activity towards plasmid DNA pBR322 (0.2 μg) of Cu(II) ATCUN complexes Cu−GGH, 1–7 (50 μM) and CuCl2 in MOPS buffer (50 mM, pH 7.4) in the presence of ascH^− (1 mM) after incubation for 1 h at 37 °C. Lane 1: DNA ladder (form I, II and III), lane 2: DNA reference, lanes 3–10 as indicated, lane 11: CuCl2. (Bottom) Visualization of the extent of DNA cleavage in percent. Error bars represent the standard deviation from at least three experiments.
A suitable concentration at which DNA forms II and III are visible, was determined to be 35 μM through a concentration‐dependent DNA cleavage experiment (S‐6.2, 0–50 μM).
All DNA cleavage experiments were
performed at least in triplicate in order to ensure reproducibility. The standard deviations
are represented as the error bars.
The in situ prepared complexes 1–7 (50 µM CuCl2 / 62.5 µM ligand, Cu(II):peptide = 1:1.25,
see S-4) and their corresponding ligands a–g (62.5 µM) were incubated with plasmid DNA […]
(form II), and linear (Form III) DNA were visualized by fluorescence imaging of […]

[5] = tested on: Ehrlich ascites tumor cells; details: cited from earlier work
From the text: Cowan et al. reported Cu(II) ATCUN complexes with anticancer, ‐viral, and ‐microbial activity as well as for DNA cleavage and enzyme inhibition.[3, 16, 17]

[6] = pH 7.4, competitivity index (CI) method; cited from earlier work
Description: Table 1 CI values calculated at pH 7.4 for Cu(II) complexes 1–7 of peptides a–g (1 mM Cu(II), peptides L and virtual competitive ligand Z) based on respective stability constants. […] The high stability of Cu−GGH (CI7.4=12.4)[14] and the novel Cu(II) Gly2−ATCUN complexes 1 and 2 (CI7.4 13.61 and […], Table 1) by formation of 5,5,6‐chelates is assumed to be res ...

HCT116 cells = assay: Cellular uptake of Cu by ICP-MS; assay type: cell-based, human; details: HCT116, 70 μM, 24 h
Description: We aimed to correlate the antiproliferative activity to the accumulation of Cu in HCT116 cells. Therefore, cells were treated for 24 h with complexes Cu−GGH, 1, 3, 4 and CuCl2 (70 μM), and the Cu content of the samples was determined by ICP‐MS (Table S13). […] The higher Cu contents probably lead to enhanced oxidative stress levels in cells, which consequently results in higher antiproliferative activity.
The antiproliferative activity of selected Cu(II) ATCUN complexes was investigated towards different tumor cell lines (HCT116, NCI-H460, SiHa and SW480 cells) and expressed as the IC50 values. Additionally, cellular uptake studies in HCT116 tumor cells were carried out and the amount of Cu was determined with inductively coupled plasma mass spectrometry (ICP-MS).
Table S13. […]
with 0.4% sulforhodamine B (Sigma-Aldrich) in 1% acetic acid for 30 min in the dark at room temperature and then washed with 1% acetic acid to remove unbound dye. The stain was dissolved in unbuffered Tris base (10 mM, Serva) for 30 min on a plate shaker in the dark and quantified on a BioTek EL808 microplate reader at an absorbance of 490 nm with a reference wavelength of 450 nm to determine the percentage of cell-growth inhibition by determining the absorbance of each sample relative to a negative (no inhibitor) and a no-growth control (day 0). […]

Substance: NH2−Gly−Gly−His−COOH [Cu−GGH, reference compound]
- residual viable cells SW480 [1]: 73 ± 17%
- residual viable cells SiHa [2]: – (indicates no antiproliferative activity observed after treatment with the respective compound at 70 μM for 72 h)
- residual viable cells NCI-H460 [3]: 74 ± 9%
- residual viable cells HCT116 [4]: 66 ± 21%
- extent of DNA cleavage, form II (plasmid DNA pBR322): ~90%
- antitumor effect in vivo (in words) [5]: killed Ehrlich ascites tumor cells in vivo
- log K 7.4 / CI7.4 of Cu(II) complex [6]: 12.4
- cellular uptake (accumulated Cu content), approximate values (HCT116 cells): ~0.3 μg Cu/4×10^5 cells
